{
  "source": "patent US9695155B2",
  "about": "“Herbicidal substituted pyrimidinyloxy benzene compounds” (E. I. DU PONT DE NEMOURS AND COMPANY, priority 2013, dated 2017)",
  "key": {"lambsquarters": {"test_system": "lambsquarters", "test": "Test C postemergence", "assay_type": "in vivo, Chenopodium album", "settings": "Chenopodium album, post-emergence", "description": "(§1) Seeds of plant species selected from blackgrass (Alopecurus myosuroides), Italian ryegrass (Lolium multiflorum), wheat, winter (winter wheat, Triticum aestivum), galium (catchweed bedstraw, Galium aparine), corn (Zea mays), large (Lg) crabgrass (Digitaria sanguinalis), giant foxtail (Setaria faberii), johnsongrass (Sorghum halepense), lambsquarters (Chenopodium album), morningglory (Ipomoea coccinea), yellow nutsedge (Cyperus esculentus), pigweed (Amaranthus retroflexus), ragweed (common ragweed, Ambrosia elatior), soybean (Glycine max), barnyardgrass (Echinochloa crus-galli), oilseed rape (Brassica napus), waterhemp (common waterhemp, Amaranthus rudis), kochia (Kochia scoparia), wild oat (Avena fatua), surinam grass (Brachiaria decumbens), foxtail, green (green foxtail, Setaria viridis), goosegrass (Eleusine indica), bromegrass, downy (downy bromegrass, Bromus tectorum), nightshade (eastern black nightshade, Solanum ptycanthum), cocklebur (common cocklebur, Xanthium strumarium), cupgrass, woolly (woolly cupgrass, Eriochloa villosa), bermudagrass (Cynodon dactylon), sunflower, (common oilseed sunflower, Helianthus annuus), Russian thistle (Salsola kali), and velvetleaf (Abutilon theophrasti) were planted into a blend of loam soil and sand and treated preemergence with test chemicals formulated in a non-phytotoxic solvent mixture which included a surfactant.\n(§2) At the same time, plants selected from these crop and weed species and also barley, winter (winter barley, Hordeum vulgare), windgrass (Apera spica-venti), chickweed (common chickweed, Stellaria media), deadnettle (henbit deadnettle, Lamium amplexicaule), and canarygrass (littleseed canarygrass, Phalaris minor) were planted in pots containing Redi-Earth® planting medium (Scotts Company, 14111 Scottslawn Road, Marysville, Ohio 43041) comprising spaghnum peat moss, vermiculite, wetting agent and starter nutrients and treated with postemergence applications of test chemicals formulated in the same manner. Plants ranged in height from 2 to 18 cm (1- to 4-leaf stage) for postemergence treatments. Treated plants and controls were maintained in a greenhouse for 13 to 15 days, after which time all species were compared to controls and visually evaluated. Plant response ratings, summarized in Table C, are based on a scale of 0 to 100 where 0 is no effect and 100 is complete control. A dash (-) response means no test result."}, "Italian ryegrass": {"test_system": "Italian ryegrass", "test": "Test C postemergence", "assay_type": "in vivo, Lolium multiflorum", "settings": "Lolium multiflorum, post-emergence", "description": "as §1, §2"}, "barnyardgrass": {"test_system": "barnyardgrass", "test": "Test A preemergence", "assay_type": "in vivo, Echinochloa crus-galli", "settings": "Echinochloa crus-galli, pre-emergence, 240 h, read-out: Barnyardgrass plant response rating", "method_in_brief": "(§3)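 Visual 0–100 rating (100 = complete control) taken about 10 d post-treatment relative to untreated checks. Preemergence: directed soil spray on sown loam/sand pots. Postemergence: seedlings 2–10 cm, 1–2 leaf. Non-phytotoxic solvent formulation with surfactant.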"}, "giant foxtail": {"test_system": "giant foxtail", "test": "Test A preemergence", "assay_type": "in vivo, Setaria faberii", "settings": "Setaria faberi, pre-emergence, 240 h, read-out: Foxtail, Giant plant response rating", "method_in_brief": "as §3"}, "blackgrass": {"test_system": "blackgrass", "test": "Test C postemergence", "assay_type": "in vivo, Alopecurus myosuroides", "settings": "Alopecurus myosuroides, post-emergence", "description": "as §1, §2"}, "pigweed": {"test_system": "pigweed", "test": "Test C postemergence", "assay_type": "in vivo, Amaranthus retroflexus", "settings": "Amaranthus retroflexus, post-emergence", "description": "as §1, §2"}, "corn": {"test_system": "corn", "test": "Test C postemergence", "assay_type": "in vivo, Zea mays", "settings": "Zea mays, post-emergence", "description": "as §1, §2"}, "velvetleaf": {"test_system": "velvetleaf", "test": "Test A preemergence", "assay_type": "in vivo, Abutilon theophrasti", "settings": "Abutilon theophrasti, pre-emergence, 240 h, read-out: Velvetleaf plant response rating", "method_in_brief": "as §3"}, "[1]": {"settings": "125 g ai/ha, 0 to 100 scale where 0 is no effect and 100 is complete control"}, "[2]": {"settings": "500 g ai/ha, 0 to 100 scale, 0 no effect, 100 complete control, approx. 10 days"}},
  "data": [
    {"compound": "Fc1cnc(Oc2ccccc2-n2cc(Br)cn2)nc1", "note": "[Compound 10, 2-[2-(4-bromo-1H-pyrazol-1-yl)phenoxy]-5-fluoropyrimidine]", "values": [
      {"measurement": "pest or weed control at 125 g/ha", "setting": "lambsquarters; 125 g ai/ha, postemergence, read-out: Plant response rating (0 to 100), Lambsquarters", "value": 75, "unit": "%"},
      {"measurement": "pest or weed control at 250 g/ha", "setting": "lambsquarters; 250 g ai/ha, postemergence, read-out: Plant response rating (0 to 100), Lambsquarters", "value": 98, "unit": "%"},
      {"measurement": "pest or weed control at 31 g/ha", "setting": "lambsquarters; Postemergence, 31 g ai/ha, scale 0 to 100 (0 no effect, 100 complete control), 13 to 15 days, read-out: Plant response rating, Lambsquarters", "value": 55, "unit": "%"},
      {"measurement": "pest or weed control at 62 g/ha", "setting": "lambsquarters; Postemergence, 62 g ai/ha, scale 0 to 100 (0 no effect, 100 complete control), read-out: Plant response rating, Lambsquarters", "value": 55, "unit": "%"},
      {"measurement": "pest or weed control at 125 g/ha", "setting": "Italian ryegrass; 125 g ai/ha, postemergence, read-out: Plant response rating (0 to 100), Ryegrass, Italian", "value": 5, "unit": "%"},
      {"measurement": "pest or weed control at 250 g/ha", "setting": "Italian ryegrass; 250 g ai/ha, postemergence, read-out: Plant response rating (0 to 100), Ryegrass, Italian", "value": 10, "unit": "%"},
      {"measurement": "pest or weed control at 31 g/ha", "setting": "Italian ryegrass; Postemergence, 31 g ai/ha, scale 0 to 100 (0 no effect, 100 complete control), 13 to 15 days, read-out: Plant response rating, Ryegrass, Italian", "value": 0, "unit": "%"},
      {"measurement": "pest or weed control at 62 g/ha", "setting": "Italian ryegrass; Postemergence, 62 g ai/ha, scale 0 to 100 (0 no effect, 100 complete control), read-out: Plant response rating, Ryegrass, Italian", "value": 0, "unit": "%"},
      {"measurement": "pest or weed control at 125 g/ha", "setting": "barnyardgrass; [1]", "value": 60, "unit": "%"},
      {"measurement": "pest or weed control at 500 g/ha", "setting": "barnyardgrass; [2]", "value": 90, "unit": "%"},
      {"measurement": "pest or weed control at 125 g/ha", "setting": "giant foxtail; [1]", "value": 90, "unit": "%"},
      {"measurement": "pest or weed control at 500 g/ha", "setting": "giant foxtail; [2]", "value": 100, "unit": "%"},
      {"measurement": "pest or weed control at 125 g/ha", "setting": "blackgrass; 125 g ai/ha, postemergence, read-out: Plant response rating (0 to 100), Blackgrass", "value": 40, "unit": "%"},
      {"measurement": "pest or weed control at 250 g/ha", "setting": "blackgrass; 250 g ai/ha, postemergence, read-out: Plant response rating (0 to 100), Blackgrass", "value": 75, "unit": "%"},
      {"measurement": "pest or weed control at 31 g/ha", "setting": "blackgrass; Postemergence, 31 g ai/ha, scale 0 to 100 (0 no effect, 100 complete control), 13 to 15 days, read-out: Plant response rating, Blackgrass", "value": 5, "unit": "%"},
      {"measurement": "pest or weed control at 62 g/ha", "setting": "blackgrass; Postemergence, 62 g ai/ha, scale 0 to 100 (0 no effect, 100 complete control), read-out: Plant response rating, Blackgrass", "value": 5, "unit": "%"},
      {"measurement": "pest or weed control at 125 g/ha", "setting": "pigweed; 125 g ai/ha, postemergence, read-out: Plant response rating (0 to 100), Pigweed", "value": 100, "unit": "%"},
      {"measurement": "pest or weed control at 250 g/ha", "setting": "pigweed; 250 g ai/ha, postemergence, read-out: Plant response rating (0 to 100), Pigweed", "value": 100, "unit": "%"},
      {"measurement": "pest or weed control at 31 g/ha", "setting": "pigweed; Postemergence, 31 g ai/ha, scale 0 to 100 (0 no effect, 100 complete control), 13 to 15 days, read-out: Plant response rating, Pigweed", "value": 75, "unit": "%"},
      {"measurement": "pest or weed control at 62 g/ha", "setting": "pigweed; Postemergence, 62 g ai/ha, scale 0 to 100 (0 no effect, 100 complete control), read-out: Plant response rating, Pigweed", "value": 98, "unit": "%"},
      {"measurement": "plant injury at 125 g/ha", "setting": "corn; 125 g ai/ha, postemergence, read-out: Plant response rating (0 to 100), Corn", "value": 5, "unit": "%"},
      {"measurement": "plant injury at 250 g/ha", "setting": "corn; 250 g ai/ha, postemergence, read-out: Plant response rating (0 to 100), Corn", "value": 20, "unit": "%"},
      {"measurement": "Corn plant response rating (crop injury, 0 = no effect, 100 = complete kill) at 31 g/ha", "setting": "corn; Postemergence, 31 g ai/ha, scale 0 to 100 (0 no effect, 100 complete control), 13 to 15 days", "value": 5, "unit": "%"},
      {"measurement": "Corn plant response rating (crop injury, 0 = no effect, 100 = complete kill) at 62 g/ha", "setting": "corn; Postemergence, 62 g ai/ha, scale 0 to 100 (0 no effect, 100 complete control)", "value": 5, "unit": "%"},
      {"measurement": "pest or weed control at 125 g/ha", "setting": "velvetleaf; [1]", "value": 100, "unit": "%"},
      {"measurement": "pest or weed control at 500 g/ha", "setting": "velvetleaf; [2]", "value": 100, "unit": "%"}
    ]}
  ]
}
